± gives the expanded uncertainty stated by the source.
Test: wn = mass fraction of the nth substance listed
Settings: 101.33 kPa, Liquid

O=S(=O)(O)O [sulfuric acid] + O
Settings	mass density, w1 = 0.1 [kg/m3]	mass density, w1 = 0.2 [kg/m3]	mass density, w1 = 0.3 [kg/m3]	viscosity, w1 = 0.1 [mPa·s]	viscosity, w1 = 0.2 [mPa·s]	viscosity, w1 = 0.3 [mPa·s]
293.15 K	1066.2 ± 1.2	1139.5 ± 1.3	1218.3 ± 1.4	1.231 ± 0.028	1.55 ± 0.035	2.009 ± 0.044
303.15 K	1061.9 ± 1.2	1133.3 ± 1.3	1211.7 ± 1.4	0.9804 ± 0.023	1.229 ± 0.028	1.601 ± 0.036
313.15 K	1056.8 ± 1.3	1126.9 ± 1.3	1204.3 ± 1.4	0.7896 ± 0.018	0.9887 ± 0.023	1.306 ± 0.029
323.15 K	1051.8 ± 1.3	1121.1 ± 1.3	1198 ± 2	0.661 ± 0.016	0.8311 ± 0.019	1.1 ± 0.025
333.15 K	1046.3 ± 1.3	1115.3 ± 1.4	1190.7 ± 1.4	0.5598 ± 0.014	0.7105 ± 0.017	0.9426 ± 0.022
343.15 K	1039.6 ± 1.3	1108.8 ± 1.4	1184.2 ± 1.5	0.4902 ± 0.012	0.6409 ± 0.015	0.8467 ± 0.02

Reference: the NIST ThermoML archive (doi:10.1021/je050443o)
